“And” between values parts separate entries of the source, which are not always exact repeats. Identical values can stand only once.
Assays:
Type in all cases: cell-based, human
KRAS 35G>A mutant G12D = assay: Indel frequencies at the endogenous target sequences (T7E1 / deep sequencing) after ADGN/Cas9 mRNA/gRNA transfection; details: for indel frequencies: deep sequencing, 72 hours after transfection, Cas9 mRNA 0.1 μg, gRNA 0.2 μg
Method: Complex formation with mRNA:gRNA: ADGN peptide/mRNA/gRNA particles were prepared at a 20:1:1 molar ratio. ADGN/Cas9mRNA/sgRNA complexes were prepared at a 20/1/1 molar ratio with 0.5 μg mRNA: 1.5 μg sgRNA and 5% Glucose or DMEM (example for 96 well plates). […] Premixed Cas9 mRNA/gRNA were prepared in sterile water at room temperature in a glass vial (1-4 ml). ADGN-peptide solution was added dropwise (1 drop/sec) under magnetic agitation at 400 rpm to obtain a 1:2 ratio, and incubated for 30 min at room temperature or 37° C. Just before transfection, 150 μl Glucose or DMEM was added and the solution was mixed under magnetic agitation at 400 rpm for 1 minute. Then the solution was incubated for 5 min at 37° C. Then the complexes was ready for cell transfection or IV administration. Prior to IV administration, complexes were diluted in sucrose 5% solution.
(§1) Transfection protocol. The following protocols are reported for 24/48/96 well plate format transfection. Cells should be trypsinized and seeded a day prior transfection Cells were cultured in Dulbecco's Modified Eagle's Medium (DMEM), supplemented with 2 mM glutamine, 1% antibiotics (streptomycin 10,000 μg/mL, penicillin, 10,000 IU/mL) and 10% (w/v) foetal calf serum (FCS), at 37° C. in a humidified atmosphere containing 5% CO2. 96 well plates seeded with 50,000 cells, the day prior transfection, grown to 60-80% confluence and set up to be at around 70% confluence at the day of transfection. Before transfection, cells are washed twice with DMEM (without FBS and pen/strep) (100 μl/well). Cells were then overlaid with 25 μl of complex solution, mixed gently and incubated for 10 min at 37° C.+5% CO2. 50 μl of fresh DMEM (without FBS and Antibiotics) was added and cells were incubated for 2 h at 37° C.+5% CO2 (time of exposure can be adjusted based on sensitivity of the cells). 250 μL of DMEM (containing 10% FCS and 1% antibiotics) were then added without removing the overlay of ADGN peptide/mRNA complexes. Cells were returned to the incubator (37° C., 5% CO2) and analyzed 48 hours to 72 hours post transfection.
(§2) Nine different gRNAs targeting KRAS 35G>A mutant G12D (gRNA35A1, gRNA35A2, gRNA35A3, gRNA35A4, gRNA35A5, gRNA35A6; gRNA35A7, gRNA35A8, gRNA35A9) were evaluated on LS513, Panc1, PK-45H, and PK1 cancer cells harboring G12D KRAS mutation. Cas9 mRNA (0.1 μg) and gRNA (0.2 μg) were associated with ADGN-peptide at molar ratio 20/1 (peptide/nucleic acid). LS513, Panc1, PK-45H, PK1, HS-68 and HT-29 cells were cultured in 48 well plate format and treated with free mRNACas9-gRNA, or ADGN/mRNACas9:gRNA complex. Indel frequencies at the endogenous target sequences was evaluated 72 hours after transfection by either T7E1 method or deep sequencing. Cell proliferation was analyzed over a period of 5 days using CellTiter Glow kits on GlowMax (Promega).
In order to confirm the specificity of sgRNAs targeting G12V, G12C or G12D KRAS mutation, gRNA35T3 targeting G12V, gRNA34T6 targeting G12C, and gRNA35A5 targeting G12D were evaluated on a large panel of cancer cells harboring different KRAS mutations including SW403, SW480, PANC1, PK-45H, PK-1, MIA-PACA, H23, H358, HT-29, HS-68 and LS513. Cas9 mRNA (0.2 μg) and gRNA (0.4 μg) were associated with ADGN peptide at molar ratio 20/1 (peptide/nucleic acid). Cells were cultured in 48 well plate format and treated with free mRNACas9-gRNA, or ADGN/mRNACas9:gRNA complex. Indel frequencies at the endogenous target sequences was evaluated 72 hours after transfection by either T7E1 method and cell proliferation was analyzed over a period of 5 days using CellTiter Glow kits on GlowMax (Promega).

[1] = tested on: PANC1, PK1, LS513 and PK-45H cells; assay: Cell proliferation over 5 days (CellTiter Glow)
Method: as §1, §2

phospho-Akt (Ser 473) = assay: Western blot of KRAS downstream signaling 48 h post transfection; details: PANC-1 cells
Method: (§3) In order to verify the specific effect of your lead sgRNA targeting G12V and G12D KRAS mutation, gRNA35A5 G12D and gRNA35T3 G12V on KRAS signal transduction pathway in PANC-1 and SW403 cells, we measured the levels of downstream signaling proteins that are activated by KRAS. We specifically looked for changes in key signaling pathways, such as mitogen-activated protein kinase (MAPK) or PI3K/Akt, which are known to be the major effector pathways of KRAS activation. Cas9 mRNA (0.2 μg) and gRNA (0.2 μg or 0.5 μg) were associated with ADGN peptide at molar ratio 20/1 (peptide/nucleic acid). PANC1 and SW403 cells were cultured in 48 well plate format and treated with free mRNACas9-gRNA, or ADGN/mRNACas9:gRNA complex. Levels of Erk and Akt phosphorylation were measured 48 h post transfection by western blot using phospho-Akt (Ser 473) (CST, #9271, RRID:AB_329825) and phospho-p44/42 MAPK (Erk1/2) (Thr202/Tyr204) (CST, #4370, RRID:AB_2315112).

[2] = tested on: phospho-p44/42 MAPK (Erk1/2) (Thr202/Tyr204); assay: as above; details: PANC-1 cells
Method: as §3

Sequence: AGT TGG AGC TGA TGG CGT (guide AGTTGGAGCTGATGGCGT; chemistry not given here) [gRNA35A5, sgRNA target KRAS G12D mutation (35G>A); PAM AGG]
- disruption of G12D mutant KRAS (FIG. 2A) (KRAS 35G>A mutant G12D; G12D cancer cells vs wild type KRAS cells (HT29 or HS-68)): induced efficient disruption of G12D mutant KRAS
- indel frequency (KRAS 35G>A mutant G12D; KRAS G12D mutated cancer cells): > 70%
- indel frequencies (KRAS 35G>A mutant G12D; LS513 cells): 35 ± 4%
- indel frequencies (KRAS 35G>A mutant G12D; PANC1 cells): 67% and 67 ± 5%
- indel frequency (KRAS 35G>A mutant G12D; PANC-1, PK-1, and PK-45H cells, T7E1, 72 hours, Cas9 mRNA 0.2 μg, gRNA 0.4 μg): > 75%
- indel frequencies (KRAS 35G>A mutant G12D; PK1 cells): 78% and 78 ± 8%
- indel frequencies (KRAS 35G>A mutant G12D; PK-45H cells): 75% and 75 ± 7%
- fold more efficient than gRNA35A2 (cell proliferation) [1]: 2 fold
- fold more efficient than gRNA35A6 (cell proliferation) [1]: 3 fold
- inhibition of proliferation or survival (FIG. 2B) ([1]; PANC1, PK1, LS513, PK-45H vs HT29 or HS-68 cells harboring KRAS WT): specifically inhibit proliferation or survival of PANC1, PK1, LS513 and PK-45H cells
- cell proliferation blocked ([1]; PANC1, PK1, LS513 and PK-45H cells, 5 days): 80%
- level of p-AKT (phospho-Akt (Ser 473)): significantly reduced
- level of P-Erk reduced by [2]: 15%

— patent US20230167437A1, “COMPOSITIONS FOR TREATING CANCER WITH KRAS MUTATIONS AND USES THEREOF” (Aadigen, LLC, priority 2020, published 2023)
